Reference: patent US20130130909A1, “DCMU RESISTANCE IN NANNOCHLOROPSIS” (priority 2011, published 2013)

Key:
[1] = tested on: weed algae of genus Tetraselmis; experiment: DCMU administered to 1 million liter open pond raceway systems with Nannochloropsis cultures invaded by Tetraselmis; type: in vivo
Experimental: The inventors utilized commercially available DCMU at a field research site to kill the persistent weed algae of genus Tetraselmis. DCMU was administered to six 1 million liter open pond raceway systems wherein Nannochloropis cultures were cultivated at a density of approximately 270 milligrams per liter. Tetraselmis invasion in the ponds is shown in FIG. 6, and is quantified in Table 2 as a percentage of mass. The higher the percentage of mass, the higher the Tetraselmis invasion. The six 1 million liter open pond raceway systems are denoted in FIG. 6, Table 1, and Table 2 as Pond A1, Pond A2, Pond A3, Pond B1, Pond B2, and Pond B3.
Consequently, as little as 100 grams, and as much as 400 grams, were needed. The commercial DCMU source was 90% DCMU by mass, so 90 grams and 360 grams effective amounts of DCMU (M.W. 233 amu) in 1 million liters of volume converts to DCMU concentrations of 0.38 micromolar and 1.55 micromolar, respectively.
Note “D” denotes the dumping of the contents of the pond.

[2] = tested on: algae of genus Nannochloropsis ("W2"); experiment: DCMU incubation and fluorescence under low actinic light, Nannochloropsis culture; type: cell-based; conditions: 100 nanomolar DCMU
Experimental: Typically, DCMU is instantaneously efficacious at concentrations in the 0.1 micromolar to 50 micromolar range. The inventors herein discovered that algae of the genus Nannochloropsis, however, generally requires higher concentrations and relatively lengthy incubation periods for the effects of DCMU to take place.
(§1) FIG. 3 (“FIG. 3”) is a graph of relative fluorescence rise versus percentage contaminating species for the algae of genus Chlorella as referred to in FIG. 2. In FIG. 3, the impact of the actinic light is seen in the relative fluorescence rise to the maximum fluorescence yield observed during an intense saturating pulse, during the low level actinic light treatment for the Chlorella culture, the same rise being absent from the Nannochloropsis culture.

[3] = tested on: algae of genus Chlorella; experiment: DCMU and fluorescence under low actinic light, Chlorella culture; type: cell-based; conditions: 100 nanomolar DCMU
From the text: as §1

[4] = corrected for 90% DCMU by mass, 1 million liters

## CN(C)C(=O)Nc1ccc(Cl)c(Cl)c1 [DCMU, 3-(3,4-dichlorophenyl)-1,1-dimethylurea]
[1]; 90 grams in 1 million liters
  effective DCMU concentration, lowest: 0.38 µM
[1]; 360 grams in 1 million liters
  effective DCMU concentration, highest: 1.55 µM
[1]; [4]
  effective amount of DCMU, highest: 360 grams
  effective amount of DCMU, lowest: 90 grams
[2]; 24 hour incubation period
  resistance of Nannochloropsis to DCMU: completely resistant
[2]; 50 micromolar quanta m^-2 s^-1 actinic light, FIG. 1
  effect of actinic light on PSII reaction centers in presence of DCMU, Nannochloropsis: barely has an effect
[3]; 50 micromolar quanta m^-2 s^-1 actinic light, FIG. 2
  effect of actinic light on PSII reaction centers in presence of DCMU, Chlorella: completely closes PSII reaction centers
[3]; Chlorella isolated from an invaded pond
  herbicidal effect on Chlorella: strong herbicidal effect
